Source: patent US20240083919A1, “Metal Complexes and Methods for the Same” (Colgate-Palmolive Company, priority 2020, published 2024)
Converted amounts (≈) assume the structure as drawn. Read-outs that look alike come from different tables or passages of the source.

Key:
Trichophyton rubrum = test: MIC by doubling dilutions, visual turbidity, Trichophyton rubrum; assay type: cell-based; settings: for Final Dilution (Ratio): doubling dilutions from initial concentration 0.5% (CHA-Zn) or 1% (others); for MIC: about 35° C., 3 to 14 days, highest dilution that completely inhibited growth
Procedure: A suspension of Trichophyton rubrum was also prepared and exposed to each of the series of doubling dilutions. The samples were incubated at about 35° C. for 3 to 14 days or until growth was apparent in a growth control tube. Following incubation, each of the samples were visually examined for growth on the basis of turbidity. […] It should be appreciated that a relatively lower MIC value indicates a relatively greater efficacy against the microbe.

Malassezia furfur = test: MIC by doubling dilutions, visual turbidity, Malassezia furfur; assay type: cell-based; settings: for Final Dilution (Ratio): doubling dilutions from initial concentration 0.5% (CHA-Zn) or 1% (others); for MIC: about 35° C., 3 to 5 days, highest dilution that completely inhibited growth
Procedure: A suspension of Malassezia furfur was also prepared and exposed to each of the series of doubling dilutions. The samples were incubated at about 35° C. for 3 to 5 days or until growth was apparent in a growth control tube. Following incubation, each of the samples were visually examined for growth on the basis of turbidity.

MIC (Trichophyton rubrum; read-out: MIC) [µg/mL]	MIC (Malassezia furfur; read-out: MIC) [µg/mL]	Compound	Final Dilution (Ratio) (Trichophyton rubrum)	Final Dilution (Ratio) (Malassezia furfur)	MIC (Trichophyton rubrum) [ppm]	MIC (Malassezia furfur) [ppm]	MIC (Malassezia furfur; listed as zinc nitrate) [ppm]
–	–	caprylhydroxamic-zinc complex [CHA-Zn complex]	64	64	–	–	–
~156 (≈ 980 µM)	~312 (≈ 1960 µM)	CCCCCCCC(=O)NO [CHA, caprylhydroxamic acid]	64	32	–	–	–
–	–	zinc pyrithione [Zinc pyrithione (ZPT)]	512	–	20	–	–
–	–	Cc1cc(CC(C)CC(C)(C)C)n(O)c(=O)c1.NCCO (stereo not drawn) [Piroctone Olamine]	–	64	–	156	–
–	–	O=[N+]([O-])[O-].O=[N+]([O-])[O-].[Zn+2] [Zinc Nitrate (Zn(NO3)2), zinc nitrate]	4	2	~2500	>5000	> 5000
